Measurements reported in patent publication US12390472B2 (SUZHOU SINOVENT PHARMACEUTICALS CO., LTD., priority 2018, dated 2025).
Like-named read-outs stand apart in the source and are kept apart here.

Columns and labels:
[1] = tested on: WSU-DLCL2; assay: Methylated lysine of histone-H3 (H3K27Me3) detection by ELISA, WSU-DLCL2 cells; type: cell-based; conditions: Homo sapiens, WSUDLCL2, 168 h; WSU-DLCL2, 7 days treatment, H3K27Me3 normalized to total histone-3; read-out: IC50 of cell methylation, WSU-DLCL2
How it was run: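 Cells were treated 7 days with compound (4-fold dilutions, 20 uM-0.009 nM), then lysed hypotonically with NaCl adjusted to ~100 mM. Lysate-coated plates were probed by ELISA for H3K27Me3 and total H3 (TMB, A450). Methylation signal was normalised to total H3 before curve fitting.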

[2] = biological target: EZH2 (Y641N) (Homo sapiens (Human), UniProt Q15910, Y641N); assay: Test on EZH2 (Y641N) inhibitory activity; type: biochemical
Chain of EZH2 (Y641N) (Q15910 whole entry Y641N): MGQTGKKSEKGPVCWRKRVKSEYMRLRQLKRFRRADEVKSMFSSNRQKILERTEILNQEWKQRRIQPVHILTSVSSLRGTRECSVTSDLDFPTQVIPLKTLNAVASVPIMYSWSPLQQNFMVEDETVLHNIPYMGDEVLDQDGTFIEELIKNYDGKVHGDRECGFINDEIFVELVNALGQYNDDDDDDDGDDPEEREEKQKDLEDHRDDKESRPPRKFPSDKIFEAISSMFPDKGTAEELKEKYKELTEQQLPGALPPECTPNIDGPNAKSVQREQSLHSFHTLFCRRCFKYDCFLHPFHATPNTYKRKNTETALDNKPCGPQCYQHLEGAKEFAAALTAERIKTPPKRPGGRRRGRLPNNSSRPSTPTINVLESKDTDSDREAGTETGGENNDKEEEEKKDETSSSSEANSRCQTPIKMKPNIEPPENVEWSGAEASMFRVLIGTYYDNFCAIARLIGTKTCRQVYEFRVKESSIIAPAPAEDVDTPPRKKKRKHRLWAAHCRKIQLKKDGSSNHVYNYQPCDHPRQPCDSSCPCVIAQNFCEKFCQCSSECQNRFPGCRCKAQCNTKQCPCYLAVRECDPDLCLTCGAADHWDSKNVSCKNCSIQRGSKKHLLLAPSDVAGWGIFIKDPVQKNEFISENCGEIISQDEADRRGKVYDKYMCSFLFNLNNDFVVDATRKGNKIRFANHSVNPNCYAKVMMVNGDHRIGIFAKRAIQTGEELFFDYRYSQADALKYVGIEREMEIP
Chain of EZH2 (Y641N) (O75530 whole entry partner): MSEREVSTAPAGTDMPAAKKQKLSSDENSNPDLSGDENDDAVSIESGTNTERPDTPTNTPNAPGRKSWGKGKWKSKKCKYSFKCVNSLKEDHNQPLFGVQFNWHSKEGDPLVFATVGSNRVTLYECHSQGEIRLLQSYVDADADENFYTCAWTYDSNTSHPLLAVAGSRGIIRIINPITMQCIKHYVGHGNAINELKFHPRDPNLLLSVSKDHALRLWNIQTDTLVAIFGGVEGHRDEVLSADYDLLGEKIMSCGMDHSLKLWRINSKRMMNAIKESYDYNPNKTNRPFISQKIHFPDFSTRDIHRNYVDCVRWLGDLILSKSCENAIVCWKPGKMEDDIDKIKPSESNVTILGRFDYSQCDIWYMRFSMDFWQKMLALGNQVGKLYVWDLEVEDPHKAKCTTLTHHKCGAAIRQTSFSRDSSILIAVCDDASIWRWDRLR
Chain of EZH2 (Y641N) (Q15022 whole entry partner): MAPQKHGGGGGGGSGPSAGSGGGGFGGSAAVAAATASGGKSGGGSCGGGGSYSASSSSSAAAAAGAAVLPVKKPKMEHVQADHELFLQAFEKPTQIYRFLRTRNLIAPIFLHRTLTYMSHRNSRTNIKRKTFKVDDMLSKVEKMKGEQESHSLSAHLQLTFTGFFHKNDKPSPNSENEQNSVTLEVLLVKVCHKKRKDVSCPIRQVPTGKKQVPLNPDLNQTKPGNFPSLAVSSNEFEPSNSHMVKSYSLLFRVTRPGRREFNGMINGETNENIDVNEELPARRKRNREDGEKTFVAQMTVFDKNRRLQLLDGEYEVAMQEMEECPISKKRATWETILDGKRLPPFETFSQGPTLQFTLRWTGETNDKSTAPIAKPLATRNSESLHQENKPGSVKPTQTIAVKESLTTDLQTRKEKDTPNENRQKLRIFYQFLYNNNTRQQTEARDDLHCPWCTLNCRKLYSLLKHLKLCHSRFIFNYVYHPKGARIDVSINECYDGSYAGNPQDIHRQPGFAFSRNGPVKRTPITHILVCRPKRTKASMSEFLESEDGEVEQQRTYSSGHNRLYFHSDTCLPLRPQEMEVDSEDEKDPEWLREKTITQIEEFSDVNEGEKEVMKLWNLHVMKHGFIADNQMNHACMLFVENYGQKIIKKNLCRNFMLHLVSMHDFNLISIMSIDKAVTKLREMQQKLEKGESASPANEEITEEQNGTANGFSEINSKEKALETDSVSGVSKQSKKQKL
Experimental: Compounds at different concentrations were dissolved in 100% DMSO and transferred to test plates, and the final concentration of DMSO was 1%. Enzyme solution and substrate SAM solution were prepared with 1-fold reaction buffer (optimized Tris buffer). 5 uL of enzyme solution was added to the test plate and wells only added with 5 uL of reaction buffer were used as negative control wells. After incubation at room temperature for 15 min, the plate was added with 5 uL of substrate solution per well to initiate the reaction, and then incubated at room temperature for 60 min. 5 uL of receptor solution was added and the plate was incubated away from light at room temperature for 60 min. 10 uL of donor solution was added and the plate was incubated away from light at room temperature for 30 min. The endpoint values were read on the Envision and the IC50 was calculated.
(§1) Data were fitted by GraphPad Prism 5 software and inhibition rate was calculated according to equation (1) Inh %=(Max−Signal)/(Max−Min)×100 (1)
(§2) IC50 was calculated using equation (2) Y=Bottom+(Top−Bottom)/(1+10^((Log IC50−X)×Hill Slope))
(§3) Y: inhibition rate; X: concentration of the compound

[3] = biological target: EZH2 (wt) (Homo sapiens (Human), UniProt Q15910); assay: Test on EZH2 (wt) inhibitory activity ([3H]-SAM Flashplate); type: biochemical
Chain of EZH2 (wt) (Q15910 whole entry): as the sequence (Q15910 whole entry Y641N) above, with N641Y counted along it
Chain of EZH2 (wt) (O75530 whole entry partner): as the sequence (O75530 whole entry partner) above
Chain of EZH2 (wt) (Q15022 whole entry partner): as the sequence (Q15022 whole entry partner) above
Experimental: Protocols Compounds at different concentrations were dissolved in 100% DMSO and transferred to test plates, and the final concentration of DMSO was 1%. The enzyme solution and the mixture solution of peptide and [3H]-SAM were prepared with 1-fold reaction buffer. 10 uL of enzyme solution was added to the test plate and wells only added with 10 uL of reaction buffer were used as negative control wells. After incubation at room temperature for 15 min, the plate was added with 10 uL of the mixture solution of peptide and [3H]-SAM per well to initiate the reaction which lasts for 60 min at room temperature. The pre-cooled SAM was added to 1-fold reaction buffer to prepare a stop buffer. The reaction was stopped by adding 10 uL of stop buffer per well. 25 uL of solution was transferred from the reaction plate to Flashplate and incubated at room temperature for at least 1 h. The Flashplate was washed 3 times with dH2O+0.1% Tween-20. The plate was read by Microbeta.
as §1, §2, §3

[4] = tested on: WSU-DLCL2 cells; assay: Experiment on WSU-DLCL2 cell proliferation (Calcein-AM); type: cell-based; conditions: Homo sapiens
Experimental: WSU-DLCL2 cells were plated in a 96-well plate and 100 uL of cells (a density of 1×10^5 cells/mL) and 50 uL of compound stock at 3-fold concentration was added to each well, and the final volume was 150 uL/well. After 6 days of culturing, on day 7, the cells in the well plate were mixed well by pipetting, and 50 uL of the cell suspension was pipetted to be tested for cell viability using Calcein-AM. 50 uL of the cell suspension was added to a 96-well plate coated by poly-D-Lysine, and then 50 uL of HBSS containing 2 uM Calcein-AM was added to make the final concentration of Calcein-AM 1 uM. After incubation for 10 min at room temperature, the cells were rapidly centrifuged to be deposited on the bottom of the plate. The cells were cultured in the incubator for another 40 min and then the plate was read on Acumen.
The remaining cells were diluted and then plated in a 96-well plate, and 100 uL of cells and 50 uL of a compound at 3-fold concentration were added to each well for further culturing until day 14, and the cell viability was detected as described above. The IC50 was calculated.

SMILES: CCN(c1cc(O[C@H]2C[C@H](N3C[C@@H](C)O[C@@H](C)C3)C2)cc(C(=O)NCc2c(C)cc(C)[nH]c2=O)c1C)C1CCC(F)(F)CC1 [Example 45, 3-((4,4-difluorocyclohexyl)(ethyl)amino)-N-((4,6-dimethyl-2-oxo-1,2-dihydropyridin-3-yl)methyl)-5-(trans-3-(cis-2,6-dimethylmorpholinyl)cyclobutoxy)-2-methylbenzamide]
- IC50 [1]: 50 to 500 nM
- IC50 [2]: 5.2 nM
- IC50 [3]: 2.3 nM
- IC50 ([4]; WSUDLCL2, 168 h, WSU-DLCL2, Day 7, read-out: IC50 WSU-DLCL2 proliferation Day 7): 91 nM
- IC50 ([4]; WSUDLCL2, 336 h, WSU-DLCL2, Day 14, read-out: IC50 WSU-DLCL2 proliferation Day 14): 18 nM
